Results published in US7001896B2, “Compositions for treating diabetes” (Otsuka Pharmaceutical Factory, Inc., priority 2000, dated 2006).

Test system: New Zealand white rabbits given high-fat, high-sugar feed
Assay: Pharmacological Test Example 1: serum glucose level in rabbits fed high-fat, high-sugar feed
Format: in vivo
Settings: for serum glucose level (mean±S.D.): Group 2 (n = 6), high-fat, high-sugar feed containing 1% Compound A from week 4, fasted overnight, feed 35 g/kg/day
From the text: In this test, New Zealand white rabbits each weighing about 2 kg were divided into three groups, i.e., Group 1 consisting of 5 rabbits, Group 2 consisting of 6 rabbits, and Group 3 consisting of 6 rabbits.
The Group 1 rabbits were fed on an ordinary feed (Standard laboratory chow for rabbits, product of Shanghai Shengwang Experimental Animal Ranch (P.R. China)) (Normal Group).
The Group 2 rabbits were given for 4 weeks a high-fat, high-sugar feed prepared by adding 10% lard and 37% sucrose to the above-described standard laboratory chow. After confirming increases in blood glucose level, these rabbits were fed a high-fat, high-sugar feed as described above but containing 1% of the active ingredient (Compound A) of the pharmaceutical composition of the invention for treating diabetes (Experimental Group).
The Group 3 rabbits were fed the high-fat, high-sugar feed prepared by adding 10% lard and 37% sucrose to the standard laboratory chow described above (Control Group).
The rabbits of each group were allowed to eat the respective feeds ad libitum. In all groups, the amount of feed given was 35 g/kg/day per rabbit. The test period (period of feeding) was 24 weeks.
At the beginning of the test (0 week) and 4 weeks, 8 weeks, 12 weeks, 16 weeks, 20 weeks and 24 weeks later, the rabbits of each group fasted overnight, and blood samples were then collected from the auricular artery and assayed to measure the serum glucose level (mg/dl) using a commercially available glucose determination kit for enzymatic assaying (Glucose determination kit (Glucose oxidase-peroxidase method), product of Shanghai Rongsheng Biotech Inc. (P.R China).

## CCOP(=O)(Cc1ccc(C(=O)Nc2ccc(Br)cc2C#N)cc1)OCC [Compound A, 4-diethoxyphosphinoylmethyl-N-(4-bromo-2-cyanophenyl)benzamide]
8 weeks later
  serum glucose level (mean±S.D.): 124.7 ± 29.2 mg/dL
12 weeks later
  serum glucose level (mean±S.D.): 84.7 ± 19.5 mg/dL
16 weeks later
  serum glucose level (mean±S.D.): 85.3 ± 12.8 mg/dL
20 weeks later
  serum glucose level (mean±S.D.): 90.0 ± 15.7 mg/dL
24 weeks later
  serum glucose level (mean±S.D.): 73.6 ± 6.1 mg/dL
Group 2 given high-fat, high-sugar feed containing Compound A from 4 weeks after the beginning of the test, 24-week test, versus Control Group 3 with continuous increase
  change in blood glucose level (in words): significant decrease in blood glucose level over time
